Data: US20030032602A1, “Methods and compositions for collagen homeostasis” (priority 2001, published 2003)

Test system: collagenase from Clostridium histolyticum (EC 3.4.24.3)
Experiment: Inhibition of collagenase with fluorophor labeled Gelatin-FL, Collagen I-FL and Collagen IV-FL as substrate
Assay type: biochemical
Conditions: substrates collagen I, collagen IV and denatured collagen (gelatin), fluorescence-labeled; incubation 60 min at 37° C.; FIGS. 1A-1C
Procedure: The following examples have been provided to illustrate various aspects of the inventive subject matter. More particularly, all examples employed commercially available collagenase from Clostridium histolyticum (EC 3.4.24.3; Fluka Chemie AG, Switzerland) and commercially available collagen-I and collagen-IV (Molecular Probes, OR, USA).
Inhibition of collagenase from Clostridium histolyticum was determined using fluorophor labeled Gelatin-FL, Collagen I-FL and Collagen IV-FL as substrate. Negative control was Mg ascorbyl-2-phosphate (MAP), and exemplary boron-containing compounds were AB(F-D) and AB (V-E), which represented two different batches of potassium ascorbato-borates. The assay was performed under standard conditions with incubation and of substrate for 60 min at 37° C. and fluorescence was measured in a standard fluorometer. The results of the inhibition experiments are depicted in FIGS. 1A-1C. With respect to the inhibitors, the first column represents the negative control MAP, while the second and third columns represent exemplary boron-containing compounds AB(F-D) (potassium ascorbato-borate) and AB(V-E) (potassium ascorbato-borate). […] Moreover, additional experiments (data not shown) confirmed the inhibitory character of numerous other boron-containing compounds, and especially boron-containing compounds in which borate is complexed by one or more ligands.

Substance: potassium ascorbato-borate [AB(F-D)]
- inhibition of collagenase: specific inhibitory compounds for collagenase
